According to patent publication US20020137929A1, “1 - (3-heterocyclylphenyl) isothiourea, -isourea, -guanidine and -amidine herbicidal agents” (Intellectual Property Department, BASF Aktiengesellschaft, priority 1998, published 2002):

How the values were obtained:
ZEAMX (Corn, Field) = experiment: Postemergence herbicidal evaluation; assay type: in vivo, Zea mays; settings: postemergence
In short: (§1)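 Two-week seedlings sprayed postemergence at 40 psi; formulation: 1:1 acetone/water, 0.5% TWEEN 20; application ≈0.0156–0.500 kg/ha. Greenhouse grow-out, then 0–9 visual scoring at 4–5 weeks.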

SETVI (Foxtail, Green) [1] = experiment: Preemergence herbicidal evaluation; assay type: in vivo, Setaria viridis; settings: rated 4-5 weeks after treatment
In short: (§2)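 Rating at 4–5 wk post-spray on a 0–9 visual scale vs control. Application: aqueous acetone, ~0.0156–0.500 kg/ha, to soil surface after seeding, preemergence.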

SETVI (Foxtail, Green) [2] = experiment: Postemergence herbicidal evaluation; assay type: in vivo, Setaria viridis; settings: postemergence
In short: as §1

ORYSAT (Rice, Tebonnet) = experiment: Postemergence herbicidal evaluation; assay type: in vivo, Oryza sativa, (L.) Tebonnet; settings: postemergence
In short: as §1

[3] = system: GLXMAW (Soybean, Williams); experiment: Postemergence herbicidal evaluation; assay type: in vivo, Glycine max, (L.) Merr. cv Williams; settings: postemergence
In short: as §1

AMBEL (Ragweed, Common) = experiment: Preemergence herbicidal evaluation; assay type: in vivo, Ambrosia artemisifolia; settings: rated 4-5 weeks after treatment
In short: as §2

CYPIR (Rice Flatsedge) = experiment: Preemergence weed control under flooded paddy conditions; assay type: in vivo, Cyperus iria; settings: rated 3-4 weeks after treatment
In short: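 Seeds or propagules sown in top 0.5 cm of silt loam soil, flooded 1.5 to 3 cm above surface throughout. Compound in 50/50 v/v aqueous/acetone pipetted into flood water at about 0.0313 to 0.500 kg/ha. Visual 0-9 rating versus control after three to four weeks in greenhouse.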

[4] = system: TRZAWR (Wheat, Winter, cv Riband); experiment: Postemergence herbicidal evaluation; assay type: in vivo, Triticum aestivum; settings: postemergence
In short: as §1

[5] = system: CHEAL (Lambsquarters, Common); experiment: Postemergence herbicidal evaluation; assay type: in vivo, Chenopodium album; settings: postemergence
In short: as §1

ABUTH (Velvetleaf) = experiment: Postemergence herbicidal evaluation; assay type: in vivo, Abutilon theophrasti; settings: postemergence
In short: as §1

GALAP (Galium) = experiment: Preemergence herbicidal evaluation; assay type: in vivo, Galium aparine; settings: rated 4-5 weeks after treatment
In short: as §2

CN1C(=O)C(CC(=O)NO)SC1=Nc1cc(-n2c(=O)cc(C(F)(F)F)n(C)c2=O)c(F)cc1Cl (stereo not shown) [Compound 162, 2-{{2-Chloro-5-[3,6-dihydro-3-methyl-2,6-dioxo-4-(trifluoromethyl)-1(2H)-pyrimidinyl]-4-fluorophenyl}imino}-3-methyl-4-oxo-5-thiazolidineacetohydroxamic acid]
herbicidal rating ZEAMX (ZEAMX (Corn, Field); rate 0.0156 kg/ha): 4.5 | herbicidal rating ZEAMX (ZEAMX (Corn, Field); rate 0.0313 kg/ha): 5.0 | herbicidal rating ZEAMX (ZEAMX (Corn, Field); rate 0.0625 kg/ha): 5.5 | Preemergence herbicidal rating SETVI (SETVI (Foxtail, Green) [1]; 0.0156 kg/ha): 9.0 | Preemergence herbicidal rating SETVI (SETVI (Foxtail, Green) [1]; 0.0313 kg/ha): 9.0 | Preemergence herbicidal rating SETVI (SETVI (Foxtail, Green) [1]; 0.0625 kg/ha): 9.0 | Preemergence herbicidal rating SETVI (SETVI (Foxtail, Green) [1]; 0.1250 kg/ha): 9.0 | Preemergence herbicidal rating SETVI (SETVI (Foxtail, Green) [1]; 0.2500 kg/ha): 9.0 | herbicidal rating SETVI (SETVI (Foxtail, Green) [2]; rate 0.0156 kg/ha): 0.0 | herbicidal rating SETVI (SETVI (Foxtail, Green) [2]; rate 0.0313 kg/ha): 3.0 | herbicidal rating SETVI (SETVI (Foxtail, Green) [2]; rate 0.0625 kg/ha): 4.0 | herbicidal rating ORYSAT (ORYSAT (Rice, Tebonnet); rate 0.0156 kg/ha): 0.5 | herbicidal rating ORYSAT (ORYSAT (Rice, Tebonnet); rate 0.0313 kg/ha): 1.5 | herbicidal rating ORYSAT (ORYSAT (Rice, Tebonnet); rate 0.0625 kg/ha): 1.5 | herbicidal rating GLXMAW ([3]; rate 0.0156 kg/ha): 6.0 | herbicidal rating GLXMAW ([3]; rate 0.0313 kg/ha): 6.5 | herbicidal rating GLXMAW ([3]; rate 0.0625 kg/ha): 8.5 | Preemergence herbicidal rating AMBEL (AMBEL (Ragweed, Common); 0.0156 kg/ha): 0.0 | Preemergence herbicidal rating AMBEL (AMBEL (Ragweed, Common); 0.0313 kg/ha): 3.0 | Preemergence herbicidal rating AMBEL (AMBEL (Ragweed, Common); 0.0625 kg/ha): 5.0 | Preemergence herbicidal rating AMBEL (AMBEL (Ragweed, Common); 0.1250 kg/ha): 9.0 | Preemergence herbicidal rating AMBEL (AMBEL (Ragweed, Common); 0.2500 kg/ha): 9.0 | herbicidal effect rating, CYPIR (CYPIR (Rice Flatsedge); 0.0313 kg/ha): 5.0 | herbicidal effect rating, CYPIR (CYPIR (Rice Flatsedge); 0.0625 kg/ha): 6.0 | herbicidal effect rating, CYPIR (CYPIR (Rice Flatsedge); 0.1250 kg/ha): 6.0 | herbicidal effect rating, CYPIR (CYPIR (Rice Flatsedge); 0.2500 kg/ha): 9.0 | herbicidal rating TRZAWR ([4]; rate 0.0156 kg/ha): 3.5 | herbicidal rating TRZAWR ([4]; rate 0.0313 kg/ha): 3.5 | herbicidal rating TRZAWR ([4]; rate 0.0625 kg/ha): 3.5 | herbicidal rating CHEAL ([5]; rate 0.0156 kg/ha): 9.0 | herbicidal rating CHEAL ([5]; rate 0.0313 kg/ha): 9.0 | herbicidal rating CHEAL ([5]; rate 0.0625 kg/ha): 9.0 | herbicidal rating ABUTH (ABUTH (Velvetleaf); rate 0.0156 kg/ha): 9.0 | herbicidal rating ABUTH (ABUTH (Velvetleaf); rate 0.0313 kg/ha): 9.0 | herbicidal rating ABUTH (ABUTH (Velvetleaf); rate 0.0625 kg/ha): 9.0 | Preemergence herbicidal rating GALAP (GALAP (Galium); 0.0156 kg/ha): 0.0 | Preemergence herbicidal rating GALAP (GALAP (Galium); 0.0313 kg/ha): 0.0 | Preemergence herbicidal rating GALAP (GALAP (Galium); 0.0625 kg/ha): 0.0 | Preemergence herbicidal rating GALAP (GALAP (Galium); 0.1250 kg/ha): 3.0 | Preemergence herbicidal rating GALAP (GALAP (Galium); 0.2500 kg/ha): 3.0
